A short description of data set [1]: Pharmacokinetics of HCT constituents in rat plasma after a single dose of HCT extract. Format: in vivo, SD rats. The protocol: The quantification of target compounds was conducted using an LC-TQ5200 triple quadrupole mass spectrometer (Hexin Instruments, Guangzhou, China) coupled with a HILIC column (100 × 2.1 mm, 1.8 μm; ANPEL, Shanghai, China). Chromatographic separation was achieved under isocratic conditions with a mobile phase comprising (A) 0.1% formic acid in water and (B) acetonitrile (50:50, v/v) for 4 min at a flow rate of 0.3 mL/min. The column temperature was maintained at 30 °C with a 10 μL injection volume.
Mass spectrometric detection was performed in positive electrospray ionization (ESI) mode with multiple reaction monitoring (MRM). The optimized ion source parameters were as follows: drying gas temperature, 500 °C; spray voltage, 5500 V; nebulizer gas pressure, 70 psi (482.3 kPa); drying gas flow, 8 L/min; and curtain gas flow, 3 L/min. The collision cell operated with 0.4 mL/min collision gas flow under the following voltage settings: curtain plate 800 V, orifice 70 V, detector 2300 V, with cell entrance and exit voltages of 30 V and 1 V, respectively. All analyses were performed with three replicates (n = 3).
(§1) The animal study protocol was approved by the Animal Ethics Committee of Jiangxi University of Chinese Medicine (Approval No. TEMPOR20230112). A total of 24 female SD rats (200 ± 20 g) were obtained from the Laboratory Animal Center of Jiangxi University of Chinese Medicine (Nanchang, China). Prior to experimentation, the rats were acclimated for 7 days in an air-conditioned room maintained at 24 ± 1 °C with a 12 h light/dark cycle. After one week of acclimatization with ad libitum access to sterilized food and water, the rats were randomly divided into three groups (n = 8), including a negative control, FDH: freeze-dried HCT extract (treated with 600 mg/kg BW freeze-dried HCT extracts), 50H: 50 °C hot-air dried HCT extract (treated with 600 mg/kg BW 50 °C hot-air dried HCT extracts). Blood collection and the pretreatment of serum were conducted following our previously published protocols. The identification and quantification of metabolites in rat samples were performed using analytical methodologies consistent with those employed in our previous investigations.

Data set [2] can be described thus: Metabolite identification in rat serum by UPLC-LTQ-Orbitrap-MS2 after HCT extract. On all read-outs here: key: +: detected; —: undetected. Format: in vivo, SD rats. The note with it: for Metabolite detected in Serum, 50H: 50H group (600 mg/kg BW 50 °C hot-air dried HCT extract); for Metabolite detected in Serum, FDH: FDH group (600 mg/kg BW freeze-dried HCT extract). The protocol: The chromatographic separation was performed on an ACQUITY UPLC BEH C18 column (2.1 × 100 mm, 1.7 μm) maintained at 25 °C. […] The mobile phase flow rate was maintained at 300 μL/min with a 2 μL injection volume.
Mass spectrometric detection was carried out using an LTQ-Orbitrap system equipped with a HESI-II source operating in both positive and negative ionization modes. Full scan MS data were acquired over m/z 50–2000 with mass resolution set to 30,000 (at m/z 400). For structural elucidation, data-dependent MS/MS scans were triggered using a normalized collision energy of 45 eV in the CID cell. The diode array detector was simultaneously monitored at 280 nm and 320 nm. All instrumental operations and data acquisition were controlled by Xcalibur v2.0 software (Thermo Scientific).
as §1, with “Prior to experimentation, the rats were acclimated for 7 days in an air-conditioned room maintained at 24 ± 1 °C with a 12 h light/dark cycle.” left out

The mark [3] stands for this setting: female, SD, 50H: 600 mg/kg BW 50 °C hot-air dried HCT extract.
Setting [4] is: female, SD, rat, plasma, 600 mg/kg, 50H: 600 mg/kg BW 50 °C hot-air dried HCT extract.
Setting [5] is: female, SD, rat, plasma, 600 mg/kg, FDH: 600 mg/kg BW freeze-dried HCT extract.
The mark [6] stands for this setting: 50H: 600 mg/kg BW 50 °C hot-air dried HCT extract.

Consider `O=C(/C=C/c1ccc(O)c(O)c1)O[C@@H]1C[C@](O)(C(=O)O)C[C@@H](O)[C@H]1O` [Chlorogenic acid, chlorogenic acid], for which, in data set [1] (setting [3]), the Tmax amounted to 1.5 h. In data set [1] (setting [4]), the AUC is 0.222 ± 0.0225 µM·h, the concentration peaked (Cmax) at 84.4 ± 2.26 nM and the half-life was 2.05 ± 0.62 h. In data set [1] (setting [5]), this compound gave an AUC of 0.231 ± 0.00787 µM·h, a Cmax of 104 ± 9.47 nM and a half-life of 2.25 ± 0.7 h.

For `O=C(O)c1ccc(O)c(O)c1` [M2, protocatechuic acid], in data set [2], the “Metabolite detected in Serum, 50H” value is “+” and the “Metabolite detected in Serum, FDH” value is “+”.

As to `COc1cc(C(=O)O)ccc1OC(C)=O` [M3, 4-acetyloxy-3-methoxybenzoic acid], in data set [2], the “Metabolite detected in Serum, 50H” value is “+” and the “Metabolite detected in Serum, FDH” value is “+”.

Regarding `O=C(O)CCc1ccc(O)c(O)c1` [M10, dihydrocaffeic acid], in data set [2], the “Metabolite detected in Serum, 50H” value is recorded as “+” and the “Metabolite detected in Serum, FDH” value is on record as “+”.

In the case of `CC(O)CC(=O)O` (stereo not shown) [M13, 3-hydroxybutyrate], the “Metabolite detected in Serum, 50H” value in data set [2] was “+”.

In the case of `Nc1ccc(CCC(=O)O)c(C(=O)O)c1` [M14], in data set [2], the “Metabolite detected in Serum, 50H” value is “+” and the “Metabolite detected in Serum, FDH” value is “+”.

With `COc1c(O)cc2oc(-c3ccc(O)cc3)cc(=O)c2c1O` [M18, hispidulin], the “Metabolite detected in Serum, FDH” value in data set [2] is recorded as “+”.

Consider `O=c1cc(-c2ccc(O)cc2)oc2cc(O)cc(O)c12` [M23, apigenin], for which the “Metabolite detected in Serum, FDH” value in data set [2] is on record as “+”.

Regarding `CCCCCCCCCC(=O)CC(=O)O` [M27, decanoyl acetic acid], in data set [2], the “Metabolite detected in Serum, 50H” value is recorded as “+” and the “Metabolite detected in Serum, FDH” value is listed as “+”.

With `CCCCCCCCC=CCCCCCCCC(=O)O` [M37, 9-octadecenoic acid], in data set [2], the “Metabolite detected in Serum, 50H” value is “+” and the “Metabolite detected in Serum, FDH” value is recorded as “+”.

In the case of `O=c1c(O)c(-c2ccc(O)c(O)c2)oc2cc(O)cc(O)c12` [Quercetin, quercetin], the figures for the Cmax in data set [1] (setting [6]) and in data set [1] (setting [5]) were 378 ± 21.4 nM and 410 ± 12 nM, respectively. In addition, the T1/2 in data set [1] (setting [6]) is recorded as 7.28 ± 4.47 h; in data set [1] (FDH: 600 mg/kg BW freeze-dried HCT extract), 4.46 ± 0.14 h. In data set [1] (setting [3]), the Tmax amounted to 2 h. In addition, the values for the area under the curve (AUC) in data set [1] (setting [4]) and in data set [1] (setting [5]) were 2.32 ± 0.0574 µM·h and 2.551 ± 0.017 µM·h, respectively.

On to `C[C@@H]1O[C@@H](OC[C@H]2O[C@@H](Oc3c(-c4ccc(O)c(O)c4)oc4cc(O)cc(O)c4c3=O)[C@H](O)[C@@H](O)[C@@H]2O)[C@H](O)[C@H](O)[C@H]1O` [Rutin, rutin], for which the time to peak (Tmax) in data set [1] (setting [3]) stood at 1 h. Moreover, in data set [1] (setting [4]), the AUC came to 0.277 ± 0.0123 µM·h, the concentration peaked (Cmax) at 125 ± 4.95 nM and the half-life was 2.04 ± 0.5 h. In data set [1] (setting [5]), the AUC was 0.328 ± 0.00568 µM·h, the maximum concentration (Cmax) amounted to 136 ± 16 nM and the half-life is 2.61 ± 1.23 h.

For `O=C(O)[C@H]1O[C@@H](Oc2cc3oc(-c4ccc(O)cc4)cc(=O)c3c(O)c2O)[C@H](O)[C@@H](O)[C@@H]1O` [Scutellarin, scutellarin], the time of peak concentration (Tmax) in data set [1] (female, SD, FDH: 600 mg/kg BW freeze-dried HCT extract) is 1.5 h. In data set [1] (setting [4]), this compound had an AUC of 0.121 ± 0.00462 µM·h, a Cmax of 22 ± 4.15 nM and a half-life of 9.26 ± 4.35 h. Besides, in data set [1] (setting [5]), the AUC turned out to be 0.116 ± 0.00702 µM·h, the maximum concentration (Cmax) came to 23.9 ± 3.17 nM and the half-life was 6.91 ± 0.65 h.
